{"source": "BigSolDB 2.1", "data": [{"smiles": "CC(C)[C@H](NC(=O)OCC1c2ccccc2-c2ccccc21)C(=O)O", "values": [{"measurement": "solubility (mole fraction)", "setting": "in 2-butanone, 283.15 K", "value": 0.0403}, {"measurement": "solubility (mole fraction)", "setting": "in 2-butanone, 288.15 K", "value": 0.0448}, {"measurement": "solubility (mole fraction)", "setting": "in 2-butanone, 293.15 K", "value": 0.0509}, {"measurement": "solubility (mole fraction)", "setting": "in 2-butanone, 298.15 K", "value": 0.057}, {"measurement": "solubility (mole fraction)", "setting": "in 2-butanone, 303.15 K", "value": 0.0632}, {"measurement": "solubility (mole fraction)", "setting": "in 2-butanone, 308.15 K", "value": 0.0699}, {"measurement": "solubility (mole fraction)", "setting": "in 2-butanone, 313.15 K", "value": 0.0793}, {"measurement": "solubility (mole fraction)", "setting": "in 2-butanone, 318.15 K", "value": 0.0902}, {"measurement": "solubility (mole fraction)", "setting": "in 2-butanone, 323.15 K", "value": 0.102}, {"measurement": "solubility (mole fraction)", "setting": "in acetone, 283.15 K", "value": 0.0449}, {"measurement": "solubility (mole fraction)", "setting": "in acetone, 288.15 K", "value": 0.0504}, {"measurement": "solubility (mole fraction)", "setting": "in acetone, 293.15 K", "value": 0.0568}, {"measurement": "solubility (mole fraction)", "setting": "in acetone, 298.15 K", "value": 0.0627}, {"measurement": "solubility (mole fraction)", "setting": "in acetone, 303.15 K", "value": 0.0707}, {"measurement": "solubility (mole fraction)", "setting": "in acetone, 308.15 K", "value": 0.0792}, {"measurement": "solubility (mole fraction)", "setting": "in acetone, 313.15 K", "value": 0.0915}, {"measurement": "solubility (mole fraction)", "setting": "in acetone, 318.15 K", "value": 0.104}, {"measurement": "solubility (mole fraction)", "setting": "in acetone, 323.15 K", "value": 0.121}, {"measurement": "solubility (mole fraction)", "setting": "in acetonitrile, 283.15 K", "value": 0.00264}, {"measurement": "solubility (mole fraction)", "setting": "in acetonitrile, 288.15 K", "value": 0.00327}, {"measurement": "solubility (mole fraction)", "setting": "in acetonitrile, 293.15 K", "value": 0.00399}, {"measurement": "solubility (mole fraction)", "setting": "in acetonitrile, 298.15 K", "value": 0.00477}, {"measurement": "solubility (mole fraction)", "setting": "in acetonitrile, 303.15 K", "value": 0.00577}, {"measurement": "solubility (mole fraction)", "setting": "in acetonitrile, 308.15 K", "value": 0.00703}, {"measurement": "solubility (mole fraction)", "setting": "in acetonitrile, 313.15 K", "value": 0.00867}, {"measurement": "solubility (mole fraction)", "setting": "in acetonitrile, 318.15 K", "value": 0.0105}, {"measurement": "solubility (mole fraction)", "setting": "in acetonitrile, 323.15 K", "value": 0.0128}, {"measurement": "solubility (mole fraction)", "setting": "in dimethyl carbonate, 283.15 K", "value": 0.0073}, {"measurement": "solubility (mole fraction)", "setting": "in dimethyl carbonate, 288.15 K", "value": 0.00766}, {"measurement": "solubility (mole fraction)", "setting": "in dimethyl carbonate, 293.15 K", "value": 0.00901}, {"measurement": "solubility (mole fraction)", "setting": "in dimethyl carbonate, 298.15 K", "value": 0.0108}, {"measurement": "solubility (mole fraction)", "setting": "in dimethyl carbonate, 303.15 K", "value": 0.0131}, {"measurement": "solubility (mole fraction)", "setting": "in dimethyl carbonate, 308.15 K", "value": 0.016}, {"measurement": "solubility (mole fraction)", "setting": "in dimethyl carbonate, 313.15 K", "value": 0.0196}, {"measurement": "solubility (mole fraction)", "setting": "in dimethyl carbonate, 318.15 K", "value": 0.0235}, {"measurement": "solubility (mole fraction)", "setting": "in dimethyl carbonate, 323.15 K", "value": 0.0294}, {"measurement": "solubility (mole fraction)", "setting": "in ethanol, 283.15 K", "value": 0.0177}, {"measurement": "solubility (mole fraction)", "setting": "in ethanol, 288.15 K", "value": 0.0243}, {"measurement": "solubility (mole fraction)", "setting": "in ethanol, 293.15 K", "value": 0.0261}, {"measurement": "solubility (mole fraction)", "setting": "in ethanol, 298.15 K", "value": 0.0312}, {"measurement": "solubility (mole fraction)", "setting": "in ethanol, 303.15 K", "value": 0.0373}, {"measurement": "solubility (mole fraction)", "setting": "in ethanol, 308.15 K", "value": 0.0462}, {"measurement": "solubility (mole fraction)", "setting": "in ethanol, 313.15 K", "value": 0.057}, {"measurement": "solubility (mole fraction)", "setting": "in ethanol, 318.15 K", "value": 0.0714}, {"measurement": "solubility (mole fraction)", "setting": "in ethanol, 323.15 K", "value": 0.0877}, {"measurement": "solubility (mole fraction)", "setting": "in isobutanol, 283.15 K", "value": 0.00967}, {"measurement": "solubility (mole fraction)", "setting": "in isobutanol, 288.15 K", "value": 0.0112}, {"measurement": "solubility (mole fraction)", "setting": "in isobutanol, 293.15 K", "value": 0.0127}, {"measurement": "solubility (mole fraction)", "setting": "in isobutanol, 298.15 K", "value": 0.0152}, {"measurement": "solubility (mole fraction)", "setting": "in isobutanol, 303.15 K", "value": 0.0186}, {"measurement": "solubility (mole fraction)", "setting": "in isobutanol, 308.15 K", "value": 0.0236}, {"measurement": "solubility (mole fraction)", "setting": "in isobutanol, 313.15 K", "value": 0.0296}, {"measurement": "solubility (mole fraction)", "setting": "in isobutanol, 318.15 K", "value": 0.0366}, {"measurement": "solubility (mole fraction)", "setting": "in isobutanol, 323.15 K", "value": 0.0541}, {"measurement": "solubility (mole fraction)", "setting": "in isopentanol, 283.15 K", "value": 0.0103}, {"measurement": "solubility (mole fraction)", "setting": "in isopentanol, 288.15 K", "value": 0.0129}, {"measurement": "solubility (mole fraction)", "setting": "in isopentanol, 293.15 K", "value": 0.0159}, {"measurement": "solubility (mole fraction)", "setting": "in isopentanol, 298.15 K", "value": 0.0192}, {"measurement": "solubility (mole fraction)", "setting": "in isopentanol, 303.15 K", "value": 0.0231}, {"measurement": "solubility (mole fraction)", "setting": "in isopentanol, 308.15 K", "value": 0.0286}, {"measurement": "solubility (mole fraction)", "setting": "in isopentanol, 313.15 K", "value": 0.0351}, {"measurement": "solubility (mole fraction)", "setting": "in isopentanol, 318.15 K", "value": 0.0429}, {"measurement": "solubility (mole fraction)", "setting": "in isopentanol, 323.15 K", "value": 0.0552}]}]}
